Data: publication PMC6226181 (PLoS ONE, 2018)
Non-standard residues stand in square brackets, D forms with d. Residues, ends and D or L forms follow the SMILES beside them. *: point of attachment. AFC = O=c1cc(C(F)(F)F)c2ccc(N*)cc2o1; AMC = Cc1cc(=O)oc2cc(N*)ccc12

Experiments:
anthrax lethal factor [1] = biological target: T1, anthrax lethal factor (Bacillus anthracis, UniProt P15917); format: biochemical; conditions: 5 hours at 37°C
anthrax lethal factor [2] = biological target: T1, anthrax lethal factor; format: biochemical; conditions: 5 hours at 37°C; remark: listed apart in the source
anthrax lethal factor [3] = biological target: T1, anthrax lethal factor; conditions: cited from earlier work

T1 sequence (P15917 34-809 limits assumed): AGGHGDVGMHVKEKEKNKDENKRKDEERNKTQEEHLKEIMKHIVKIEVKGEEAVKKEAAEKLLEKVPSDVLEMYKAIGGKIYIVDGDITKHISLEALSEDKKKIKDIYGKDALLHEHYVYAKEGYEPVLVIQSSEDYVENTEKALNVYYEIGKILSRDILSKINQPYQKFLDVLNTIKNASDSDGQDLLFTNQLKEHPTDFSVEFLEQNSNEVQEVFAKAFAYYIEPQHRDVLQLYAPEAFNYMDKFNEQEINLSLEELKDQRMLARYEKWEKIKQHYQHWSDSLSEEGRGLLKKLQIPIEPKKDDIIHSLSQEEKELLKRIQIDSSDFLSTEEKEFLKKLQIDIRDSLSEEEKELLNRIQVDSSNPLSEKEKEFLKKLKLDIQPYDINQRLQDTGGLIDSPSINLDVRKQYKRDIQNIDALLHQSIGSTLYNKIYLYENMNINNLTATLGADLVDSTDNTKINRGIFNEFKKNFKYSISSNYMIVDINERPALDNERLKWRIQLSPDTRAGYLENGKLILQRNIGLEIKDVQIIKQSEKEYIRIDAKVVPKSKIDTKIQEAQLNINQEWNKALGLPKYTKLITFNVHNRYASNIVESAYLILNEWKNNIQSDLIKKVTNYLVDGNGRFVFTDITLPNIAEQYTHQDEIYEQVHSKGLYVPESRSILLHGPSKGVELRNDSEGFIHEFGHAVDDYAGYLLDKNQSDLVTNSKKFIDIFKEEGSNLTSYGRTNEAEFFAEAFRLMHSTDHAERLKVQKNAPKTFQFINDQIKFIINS

In the case of `CC(=O)N[C@H](CCCCN)C(=O)N[C@H](CCCCN)C(=O)N[C@H](C(=O)N[C@@H](Cc1ccc(O)cc1)C(=O)N1CCC[C@H]1C(=O)Nc1ccc2c(C)cc(=O)oc2c1)C(C)C` [LBL 10100] (Ac-[dK][dK]VYP-{AMC}), the “Cleavage by LF in assay buffer (increase in fluorescence)” value (anthrax lethal factor [1]) was “eliminates hydrolysis at the concentrations of LF used”.

In the case of `CC(=O)N[C@@H](CCCNC(=N)N)C(=O)N[C@@H](CCCNC(=N)N)C(=O)N[C@@H](CCCCN)C(=O)N[C@@H](CCCCN)C(=O)N[C@H](C(=O)N[C@@H](Cc1ccc(O)cc1)C(=O)N1CCC[C@H]1C(=O)Nc1ccc2c(C)cc(=O)oc2c1)C(C)C` [LBL 10079] (Ac-RRKKVYP-{AMC}), the “Cleavage by LF in 1:10 diluted bovine plasma (increase in fluorescence)” value (anthrax lethal factor [2]) was “does not correlate with the amount of LF”.

For “7-methoxy-coumarin-4-acetyl (Mca)-Arg-Arg-Lys-Lys-Val-Tyr-Pro-Try-Pro-Met-Glu -2,4-dinitrophenol (DNP) -Thr-Ile-Ala”, the “Cleavage by LF” value (anthrax lethal factor [3]) is listed as “cleaved by LF after the first proline”.

For `CC(=O)N[C@H](CCCNC(=N)N)C(=O)N[C@H](CCCNC(=N)N)C(=O)N[C@H](CCCCN)C(=O)N[C@H](CCCCN)C(=O)N[C@H](C(=O)N[C@@H](Cc1ccc(O)cc1)C(=O)N1CCC[C@H]1C(=O)Nc1ccc2c(C)cc(=O)oc2c1)C(C)C` [LBL 10097] (Ac-[dR][dR][dK][dK]VYP-{AMC}), the “Cleavage by LF in 1:10 diluted bovine plasma (increase in fluorescence)” value (anthrax lethal factor [2]) was “dependent upon the presence and amount of LF”.

In the case of `CC(=O)N[C@@H](CCCNC(=N)N)C(=O)N[C@H](CCCNC(=N)N)C(=O)N[C@H](CCCCN)C(=O)N[C@H](CCCCN)C(=O)N[C@H](C(=O)N[C@@H](Cc1ccc(O)cc1)C(=O)N1CCC[C@H]1C(=O)Nc1ccc2c(C(F)(F)F)cc(=O)oc2c1)C(C)C` [LBL 10108] (Ac-R[dR][dK][dK]VYP-{AFC}), the “Non-specific cleavage in plasma in the absence of LF” value (plasma proteases) was “neither peptide is cleaved in plasma in the absence of LF”.
